Our source for the hydrolysis kinetics compared values is patent US8110220B2, “Temperature sensitive polymers” (Universiteit Utrecht, priority 2005, dated 2012).

This series in a line: Degradation kinetics (hydrolysis) of oligolactate monomers, HPLC. The conditions noted are these: pH 7.4, 37° C. Format: physicochemical. The protocol:
The degradation kinetic studies of HEMAm-oligolactates were conducted as described by Neradovic et al [Macromolecules; 2003; 36(20); 7491-7498]. In brief, a 10 mM solution of HEMAm-oligolactate in DMSO was diluted 10 times with 100 mM PBS (pH 7.4) in a glass vial and the pH was adjusted to pH 7.4 with 4 M HCl. The resulting solutions of HEMAm-monolactate, -dilactate, -trilactate and—tetralactate were incubated in a shaking water bath at 37° C. At regular time intervals samples of 300 μl were withdrawn and 700 μl of 1 M sodium acetate buffer (pH 3.8) was added to prevent further hydrolysis. The samples were stored at 4° C. prior to HPLC analysis. The hydrolysis of HEMAm-trilactate and—tetralactate was also investigated in an acetonitril-PBS pH7.2 mixture (50:50 w/w) of lower dielectric constant to slow down the hydrolysis rate. The HPLC analysis was carried out on a Waters system (Waters Associates Inc., Milford, Mass., USA). This consisted of a pump Model 600, an autoinjector Model 717, a variable wavelength absorbance detector Model 996 and an analytical reversed phase column LiChrosphere 100 RP-18 (5 μm, 125×4 mm i.d.) with an RP-18 guard column (4×4 mm) (Merck) was used. The injection volume was 50 μl and the detection wavelength was 254 nm. […] The chromatograms were analyzed with Empower Software Version 1154 (Waters Associates Inc.). […]

Consider `C=C(C)C(=O)NCCOC(=O)C(C)OC(=O)C(C)OC(=O)C(C)O` (centres unmarked) [HEMAm-Lac3, HEMAm-trilactate], for which the hydrolysis kinetics compared entry is listed as “even faster hydrolysis kinetics than HEMAm-Lac1-2”.
Take `C=C(C)C(=O)NCCOC(=O)C(C)OC(=O)C(C)OC(=O)C(C)OC(=O)C(C)O` (centres unmarked) [HEMAm-Lac4, HEMAm-tetralactate]: the hydrolysis kinetics compared entry was “even faster hydrolysis kinetics than HEMAm-Lac1-2”.
